In ChEMBL document CHEMBL5661979, “Pharmacological inhibition of BMK1 suppresses tumor growth through promyelocytic leukemia protein” (Cancer Cell, 2010) one finds inhibition data, which are given here for 1 compound.

The source made the active and inactive calls. No cut-off for these calls is given here.

The test deals with Mitogen-activated protein kinase; ERK1/ERK2 (Homo sapiens) (UniProt P27361+P28482). The experiment in a line: Inhibition of ERK1/2 in human HeLa cells assessed as reduction in EGF-induced ERK1/2 phosphorylation level at T202/Y204 residue at 1 uM pre incubated for 1 hr followed by EGF stimulation and measured after 17 mins by Western blot analysis. The conditions noted are these: time 77.0 min. The class given is cell-based. In general terms: A western blot detects proteins with antibodies after separation by electrophoresis.
Mitogen-activated protein kinase; ERK1/ERK2 (Homo sapiens), sequence (P27361 whole entry, looked up): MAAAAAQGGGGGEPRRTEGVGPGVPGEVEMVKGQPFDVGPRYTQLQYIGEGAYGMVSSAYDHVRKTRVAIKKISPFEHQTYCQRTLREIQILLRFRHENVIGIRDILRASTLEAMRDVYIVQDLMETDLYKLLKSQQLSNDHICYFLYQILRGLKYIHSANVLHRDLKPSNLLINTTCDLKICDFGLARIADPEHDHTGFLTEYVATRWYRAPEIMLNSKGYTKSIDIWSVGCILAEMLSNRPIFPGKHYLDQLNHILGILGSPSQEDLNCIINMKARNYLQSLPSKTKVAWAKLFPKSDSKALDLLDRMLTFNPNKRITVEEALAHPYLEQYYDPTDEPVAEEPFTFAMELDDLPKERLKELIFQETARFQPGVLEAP
Mitogen-activated protein kinase; ERK1/ERK2 (Homo sapiens), sequence (P28482 whole entry, looked up): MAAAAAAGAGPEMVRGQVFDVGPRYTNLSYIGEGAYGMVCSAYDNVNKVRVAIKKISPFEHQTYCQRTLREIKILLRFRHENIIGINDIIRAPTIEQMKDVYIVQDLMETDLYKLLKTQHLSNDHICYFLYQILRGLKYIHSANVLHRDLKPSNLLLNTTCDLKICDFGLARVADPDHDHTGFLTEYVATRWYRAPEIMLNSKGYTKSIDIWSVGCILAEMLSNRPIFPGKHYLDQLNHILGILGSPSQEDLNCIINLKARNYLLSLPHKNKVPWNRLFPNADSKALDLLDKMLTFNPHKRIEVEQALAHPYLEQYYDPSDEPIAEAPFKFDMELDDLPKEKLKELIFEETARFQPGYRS

On to `O=C(NOCC1CC1)c1ccc(F)c(F)c1Nc1ccc(I)cc1Cl`, for which the inhibition entry is “Active”.
